Laboratory results as given in ChEMBL document CHEMBL3886595, “Compounds and compositions for inhibiting the activity of ABL1, ABL2 and BCR-ABL1” (2016).

Experiments:
[1] = target: T1, Tyrosine-protein kinase ABL1 (Homo sapiens, UniProt P00519); experiment: Radio ABL1 (64-515) Assay: For determination of ABL kinase activity, the radiometric filter-binding assay was used. The assay was performed by mixing 10 uL of the compound pre-diluted with 10 uL of ATP (20 uM ATP with 0.1 uCi [γ-33P]-ATP) with the phospho-acceptor peptide poly[Ala6Glu2LysHBr5Tyr1]=polyAEKY) in 20 mM Tris/HCl pH 7.5, 1 mM DTT, 10 mM MgCl2, 0.01 mM Na3VO4, 50 mM NaCl. 10 uL of …
T1 sequence (P00519 whole entry): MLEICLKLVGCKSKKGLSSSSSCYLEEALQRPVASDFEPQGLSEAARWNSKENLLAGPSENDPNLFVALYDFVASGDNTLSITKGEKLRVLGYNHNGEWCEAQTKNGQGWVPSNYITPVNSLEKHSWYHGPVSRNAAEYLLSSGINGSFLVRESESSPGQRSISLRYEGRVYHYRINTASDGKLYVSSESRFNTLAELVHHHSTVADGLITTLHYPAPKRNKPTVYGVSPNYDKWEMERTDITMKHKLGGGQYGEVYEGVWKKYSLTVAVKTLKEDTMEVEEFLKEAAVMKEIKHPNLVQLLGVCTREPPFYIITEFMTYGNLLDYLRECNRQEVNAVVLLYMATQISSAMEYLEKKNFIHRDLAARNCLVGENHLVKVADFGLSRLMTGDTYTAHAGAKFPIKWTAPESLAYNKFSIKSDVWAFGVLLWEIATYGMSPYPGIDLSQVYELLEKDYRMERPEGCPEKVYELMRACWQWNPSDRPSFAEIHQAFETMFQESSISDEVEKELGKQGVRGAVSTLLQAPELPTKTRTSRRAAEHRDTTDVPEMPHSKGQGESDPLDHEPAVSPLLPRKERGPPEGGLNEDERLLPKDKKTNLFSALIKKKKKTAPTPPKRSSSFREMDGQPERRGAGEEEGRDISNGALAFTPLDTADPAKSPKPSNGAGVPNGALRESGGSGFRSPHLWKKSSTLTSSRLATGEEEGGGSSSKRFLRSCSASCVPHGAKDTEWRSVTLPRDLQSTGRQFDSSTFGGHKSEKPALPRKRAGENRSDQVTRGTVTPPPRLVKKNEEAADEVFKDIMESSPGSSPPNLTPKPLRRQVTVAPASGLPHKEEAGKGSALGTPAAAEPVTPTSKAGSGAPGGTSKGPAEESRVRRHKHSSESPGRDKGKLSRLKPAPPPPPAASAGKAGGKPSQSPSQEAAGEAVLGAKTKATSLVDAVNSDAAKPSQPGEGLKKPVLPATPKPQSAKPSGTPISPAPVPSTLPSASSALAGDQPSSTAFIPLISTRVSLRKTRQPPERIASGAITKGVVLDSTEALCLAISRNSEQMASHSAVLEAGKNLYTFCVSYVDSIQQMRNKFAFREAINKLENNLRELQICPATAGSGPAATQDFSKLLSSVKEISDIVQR

[2] = target: T1, Tyrosine-protein kinase ABL1; experiment: Caliper ABL : The assay plates were prepared by addition of 50 nL per well of compound solution in 90% DMSO. The kinase reactions were started by stepwise addition of 4.5 uL per well of peptide/ATP-solution (50 mM HEPES, pH 7.5, 1 mM DTT, 0.02% BSA, 0.6% DMSO, 10 mM beta-glycerophosphate, and 10 uM sodium orthovanadate, 20 mM MgCl2, 2 mM MnCl2, 4 uM ATP, 4 uM peptide (FITC-Ahx-EAIYAAPFAKKK-NH2)) …

| IC50 [1] | IC50 [2] | Structure (SMILES) |
| --- | --- | --- |
| 7 nM | – | Cc1ccc(-c2cc(C(=O)Nc3ccc(OC(F)(F)F)cc3)cnc2N2CC[C@H](N)C2)cn1 |
| 6.3 nM | 0.6 nM | O=C(Nc1ccc(OC(F)(F)F)cc1)c1cnc(N2CC[C@H](CO)C2)c(-c2cncc(F)c2)c1 |
